Key:
[1] = target: T1, human FAAH (Fatty Acid Amide Hydrolase) (Homo sapiens (Human), UniProt O00519); assay: FAAH inhibition, human FAAH CHO whole cell format; assay type: cell-based
Text: (§1) To assist in assay development stable cell lines for human, murine and rat full length FAAH were developed. […] The full length FAAH was subcloned into the mammalian expression vector, pcDEF.neo, using XbaI and EcoRI restriction sites and used for stable cell line generation.
(§2) The full length murine FAAH was subcloned into the mammalian expression vector, pcDEFneo using either EcoRI (murine) or KpnI and EcoRI (rat) restriction sites. Chinese hamster ovary cells (CHO) were transfected following manufacturers protocol (AMAXA). Forty eight hours post transfection, cells were trypsinized and transferred to 96 well plates in Iscove's DMEM media supplemented with 2 mM Glutamine, 10% fetal calf serum, 1 mg/ml geneticin and HT Supplement (0.1 mM sodium hypoxanthine, 0.016 mM thymidine) in order to isolate single clones. […] Following removal of tissue culture media cells were dislodged following addition of Cellstripper (Mediatech, Inc. Manassas, Va.) and transferred to 96 well black clear bottom assay plate, centrifuged at 1,000 rpm for 3 mins and media removed and replaced with assay buffer (50 mM Tris pH8.0, 1 mM EDTA, 0.1% fatty acid free BSA). The reaction was initiated by addition of fluorescent substrate, AMC Arachidonoyl Amide (Cayman Chemical, Ann Arbor, Mich.) to 1 μM and reaction allowed to proceed for 2 hours at room temperature. Release of fluorescence was monitored in a CytoFluor Multiplate Reader.
(§3) Assays are performed on either cell lysate or microsome fractions prepared as described or in whole cell format employing either the fluorescent substrate AAMCA (Cayman chemical, Ann Arbor, Mich.,) or ^3H-anandamide ([ETHANOLAMINE-1-3H] American Radiolabeled Chemicals; 1 mCi/ml). […] AAMCA substrate was used to achieve a final concentration of 1 μM and reaction allowed to proceed at room temperature for 1-3 hours. […] Whole cell assay is conducted with cells harvested after rinsing tissue culture flasks three times with Ca^++Mg^++ free PBS, incubating for 10 min in Enzyme free dissociation media and centrifuging for 5 minutes at 1,000 rpm in table top centrifuge. Cells are resuspended in assay buffer at desired cell number in (4×10^4 cells/assay in 96-well format; 1×10^4 cells/assay in 384-well format) and assayed as described.

[2] = target: T1, human FAAH (Fatty Acid Amide Hydrolase); assay: FAAH inhibition, human FAAH CHO cell lysate (AAMCA fluorescence); assay type: biochemical
Text: as §1, §2
CHO cells expressing FAAH were used to prepare either crude cell lysate or microsome fractions. To harvest cells, tissue culture media was decanted, the monolayer washed three times with Ca^++Mg^++ free PBS and cells recovered after 15 min in enzyme free dissociation media (Millipore Corp, Billerica, Mass.). Cells were collected by centrifuging at 2000 rpm for 15 min, and the cell pellet re-suspended with 50 mM HEPES (pH 7.4) containing 1 mM EDTA and the protease inhibitors aprotinin (1 mg/ml) and leupeptin (100 μM). The suspension was sonicated at 4° C. and the cell lysate recovered after centrifuging at 12,000×g (14,600 rpm, SS34 rotor) for 20 min at 4° C. to form a crude pellet of cell debris, nuclei, peroxisomes, lysosomes, and mitochondria; the supernatant or cell lysate was used for FAAH enzyme assay. In some eases, microsomes fractions enriched in FAAH were prepared by centrifuging the cell lysate further at 27,000 rpm (100,000×g) in SW28 rotor for 50 minutes at 4° C. The pellet containing FAAH-enriched microsomes was re-suspend in 50 mM HEPES, (pH 7.4) 1 mM EDTA, and any remaining DNA sheared by passage of material through a 23 gauge needle and aliquots of enzyme were store at −80° C. prior to use.
as §3
Alternatively, assays are performed using anandamide [ethanolamine 1-^3H] (specific activity of 10 Ci/mmol) diluted with cold anandamide to achieve a final assay concentration of 1 μM anandamide (˜50,000 cpm). Enzyme (CHO cell lysate, brain or liver homogenate) is incubated in assay buffer (50 mM Phosphate, pH 8.0, 1 mM EDTA, 200 mM KCl, 0.2% glycerol, 0.1% fatty acid free BSA) with inhibitor at 25° C. for 30 minutes.

T1 sequence (O00519 whole entry): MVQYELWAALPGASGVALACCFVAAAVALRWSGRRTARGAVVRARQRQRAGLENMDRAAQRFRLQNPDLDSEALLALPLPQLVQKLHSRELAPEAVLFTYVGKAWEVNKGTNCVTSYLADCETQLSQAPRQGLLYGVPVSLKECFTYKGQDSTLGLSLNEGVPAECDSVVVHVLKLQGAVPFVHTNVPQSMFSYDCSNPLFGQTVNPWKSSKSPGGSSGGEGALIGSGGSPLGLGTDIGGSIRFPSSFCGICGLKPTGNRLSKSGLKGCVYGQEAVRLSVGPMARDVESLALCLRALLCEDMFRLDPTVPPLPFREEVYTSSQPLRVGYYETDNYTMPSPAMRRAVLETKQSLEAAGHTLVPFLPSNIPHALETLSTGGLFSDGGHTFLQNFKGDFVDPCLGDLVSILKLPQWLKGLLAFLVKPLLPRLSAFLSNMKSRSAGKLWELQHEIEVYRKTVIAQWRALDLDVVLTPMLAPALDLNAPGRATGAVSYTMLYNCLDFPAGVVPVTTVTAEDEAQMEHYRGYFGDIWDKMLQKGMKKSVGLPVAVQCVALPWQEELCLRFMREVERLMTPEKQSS

Row | Compound | IC50 [1] [nM] | IC50 [2] [nM]
1 | C[S+]([O-])c1ccc(-c2nc(C3CCOCC3)oc2Sc2ccc(Cl)cn2)cn1 (stereo not shown) [Example A7.2, 5-chloro-2-({4-[6-(methylsulfinyl)pyridin-3-yl]-2-(tetrahydro-2H-pyran-4-yl)-1,3-oxazol-5-yl}sulfanyl)pyridine] | 935 | 293
2 | CC(C)(C)OC(=O)N1CCC(c2nc(-c3ccc(S(C)(=O)=O)cc3)c(Sc3ccc(Cl)cn3)o2)CC1 [Example A7.14, tert-butyl 4-{5-[(5-chloropyridin-2-yl)sulfanyl]-4-[4-(methylsulfonyl)phenyl]-1,3-oxazol-2-yl}piperidine-1-carboxylate] | 443 | 65.3
3 | CS(=O)(=O)c1ccc(-c2nc(C3CCNCC3)oc2Sc2ccc(Cl)cn2)cc1 [Example A7.16, 5-chloro-2-({4-[4-(methylsulfonyl)phenyl]-2-(piperidin-4-yl)-1,3-oxazol-5-yl}sulfanyl)pyridine] | ≥ 10000 | 925
4 | COC(=O)N1CCC(c2nc(-c3ccc([S+](C)[O-])cc3)c(Sc3ccc(Cl)cn3)o2)CC1 (stereo not shown) [Example A7.17, methyl 4-{5-[(5-chloropyridin-2-yl)sulfanyl]-4-[4-(methylsulfinyl)phenyl]-1,3-oxazol-2-yl}piperidine-1-carboxylate] | 547 | 75.1
5 | CC(=O)N1CCC(c2nc(-c3ccc([S+](C)[O-])cc3)c(Sc3ccc(Cl)cn3)o2)CC1 (stereo not shown) [Example A7.18, 1-(4-{5-[(5-Chloropyridin-2-yl)sulfanyl]-4-[4-(methylsulfinyl)phenyl]-1,3-oxazol-2-yl}piperidin-1-yl)ethanone] | 4420 | 839
6 | O=C(c1ccc(-c2nc(C3CCOCC3)oc2Sc2ccc(Cl)cc2)cc1)N1CCOC1 [Example B5.20, (4-{5-[(4-chlorophenyl)sulfanyl]-2-(tetrahydro-2H-pyran-4-yl)-1,3-oxazol-4-yl}phenyl)(1,3-oxazolidin-3-yl)methanone] | 383 | –
7 | Clc1ccc(Sc2oc(C3CCOCC3)nc2-c2ccc(N3CCNCC3)cc2)cc1 [Example B5.21, 1-(4-{5-[(4-chlorophenyl)sulfanyl]-2-(tetrahydro-2H-pyran-4-yl)-1,3-oxazol-4-yl}phenyl)piperazine] | 707 | –
8 | O=S1(=O)CCN(c2ccc(-c3nc(C4CCOCC4)oc3Sc3ccc(Cl)cc3)cc2)CC1 [Example B5.22, 4-(4-{5-[(4-chlorophenyl)sulfanyl]-2-(tetrahydro-2H-pyran-4-yl)-1,3-oxazol-4-yl}phenyl)thiomorpholine 1,1-dioxide] | 40.3 | –
9 | Clc1ccc(Sc2oc(C3CCOCC3)nc2-c2ccc3nncn3c2)cc1 [Example B5.23, 6-{5-[(4-chlorophenyl)sulfanyl]-2-(tetrahydro-2H-pyran-4-yl)-1,3-oxazol-4-yl}[1,2,4]triazolo[4,3-a]pyridine] | 774 | –
10 | O=C(c1ccc(-c2nc(C3CCOCC3)oc2Sc2ccc(Cl)cc2)cn1)N1CCOCC1 [Example B5.24, (5-{5-[(4-chlorophenyl)sulfanyl]-2-(tetrahydro-2H-pyran-4-yl)-1,3-oxazol-4-yl}pyridin-2-yl)(morpholin-4-yl)methanone] | ≥ 10000 | –
11 | Clc1ccc(Sc2oc(C3CCOCC3)nc2-c2cnc3n2CCC3)cc1 [Example B5.25, 3-{5-[(4-chlorophenyl)sulfanyl]-2-(tetrahydro-2H-pyran-4-yl)-1,3-oxazol-4-yl}-6,7-dihydro-5H-pyrrolo[1,2-a]imidazole] | 205 | –
12 | COC(=O)[C@H]1CC[C@H](c2nc(-c3ccc(C(C)(C)O)nc3)c(Sc3ccc(Cl)cc3)o2)CC1 [Example B5.33, methyl trans-4-{5-[(4-chlorophenyl)sulfanyl]-4-[6-(2-hydroxypropan-2-yl)pyridin-3-yl]-1,3-oxazol-2-yl}cyclohexanecarboxylate] | 9.5 | –
13 | CC(C)(O)c1ccc(-c2nc([C@H]3CC[C@H](CO)CC3)oc2Sc2ccc(Cl)cc2)cn1 [Example B5.35, 2-(5-{5-[(4-chlorophenyl)sulfanyl]-2-[trans-4-(hydroxymethyl)cyclohexyl]-1,3-oxazol-4-yl}pyridin-2-yl)propan-2-ol] | 9.06 | –

Results, then the compound that gave them:

Row | IC50 [1] [nM] | IC50 [2] [nM] | Compound
14 | 771 | 67.5 | C[S+]([O-])c1ccc(-c2nc(C3CCN(C(=O)OC(C)(C)C)CC3)oc2Sc2ccc(Cl)cn2)cc1 (stereo not shown) [Example A7.13, tert-butyl 4-{5-[(5-chloropyridin-2-yl)sulfanyl]-4-[4-(methylsulfinyl)phenyl]-1,3-oxazol-2-yl}piperidine-1-carboxylate]
15 | ≥ 10000 | 1420 | C[S+]([O-])c1ccc(-c2nc(C3CCNCC3)oc2Sc2ccc(Cl)cn2)cc1 (stereo not shown) [Example A7.15, 4-{5-[(5-Chloropyridin-2-yl)sulfanyl]-4-[4-(methylsulfinyl)phenyl]-1,3-oxazol-2-yl}piperidinium chloride]
16 | 506 | – | CN(C(=O)c1ccc(-c2nc(C3CCOCC3)oc2Sc2ccc(Cl)cc2)cc1)C1CCOC1 (stereo not shown) [Example B5.26, 4-{5-[(4-chlorophenyl)sulfanyl]-2-(tetrahydro-2H-pyran-4-yl)-1,3-oxazol-4-yl}-N-methyl-N-(tetrahydrofuran-3-yl)benzamide]
17 | 141 | – | CN1CCN(c2ccc(-c3nc(C4CCOCC4)oc3Sc3ccc(Cl)cc3)cn2)CC1 [Example B5.27, 1-(5-{5-[(4-chlorophenyl)sulfanyl]-2-(tetrahydro-2H-pyran-4-yl)-1,3-oxazol-4-yl}pyridin-2-yl)-4-methylpiperazine]
18 | ≥ 10000 | – | Cc1nnc(-c2cccc(-c3nc(C4CCOCC4)oc3Sc3ccc(Cl)cc3)c2)o1 [Example B5.29, 2-(3-{5-[(4-chlorophenyl)sulfanyl]-2-(tetrahydro-2H-pyran-4-yl)-1,3-oxazol-4-yl}phenyl)-5-methyl-1,3,4-oxadiazole]
19 | 1340 | – | O=C(c1ccc(-c2nc(C3CCOCC3)oc2Sc2ccc(Cl)cc2)cc1)N1CCSC1 [Example B5.31, (4-{5-{(4-chlorophenyl)sulfanyl]-2-(tetrahydro-2H-pyran-4-yl)-1,3-oxazol-4-yl}phenyl)(1,3-thiazolidin-3-yl)methanone]
20 | 14.2 | – | COC(=O)[C@H]1CC[C@@H](c2nc(-c3ccc(C(C)(C)O)nc3)c(Sc3ccc(Cl)cc3)o2)CC1 [Example B5.34, methyl cis-4-{5-[(4-chlorophenyl)sulfanyl]-4-[6-(2-hydroxypropan-2-yl)pyridin-3-yl]-1,3-oxazol-2-yl}cyclohexanecarboxylate]
21 | 63.8 | – | CC(C)(O)c1ccc(-c2nc([C@H]3CC[C@@H](CO)CC3)oc2Sc2ccc(Cl)cc2)cn1 [Example B5.36, 2-(5-{5-[(4-chlorophenyl)sulfanyl]-2-[cis-4-(hydroxymethyl)cyclohexyl]-1,3-oxazol-4-yl}pyridin-2-yl)propan-2-ol]
22 | 308 | – | CC(O)(CO)c1ccc(-c2nc(C3CCOCC3)oc2Sc2ccc(Cl)cc2)cn1 (stereo not shown) [Example B5.37, 2-(5-{5-[(4-chlorophenyl)sulfanyl]-2-(tetrahydro-2H-pyran-4-yl)-1,3-oxazol-4-yl}pyridin-2-yl)propane-1,2-diol]
23 | 185 | – | CC(C)(O)c1ccc(-c2nc([C@H]3CC[C@H](C(C)(C)O)CC3)oc2Sc2ccc(Cl)cc2)cn1 [Example B5.38, 2-(5-{5-[(4-chlorophenyl)sulfanyl]-2-[trans-4-(2-hydroxypropan-2-yl)cyclohexyl]-1,3-oxazol-4-yl}pyridin-2-yl)propan-2-ol]
24 | 26.2 | – | CCNC(=O)[C@H]1CC[C@H](c2nc(-c3ccc(C(C)(C)O)nc3)c(Sc3ccc(Cl)cc3)o2)CC1 [Example B5.39, trans-4-{5-[(4-chlorophenyl)sulfanyl]-4-[6-(2-hydroxypropan-2-yl)pyridin-3-yl]-1,3-oxazol-2-yl}-N-ethylcyclohexanecarboxamide]
